Test results as given in article PMC12136037, “Type II kinase inhibitors that target Parkinson’s disease–associated LRRK2” (Science Advances, 2025).
Read-outs that look alike come from different tables or passages of the source.

How the values were obtained:
Assay in all cases: DSF 100 kinase selectivity screen;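 also: compound tested at 20 µM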
Assay type in all cases: binding
[1] = target: T1, ~100 representative kinases (Homo sapiens, UniProt O75582); conditions: Protein RPS6KA5; DSF; average of three replicates
T1 construct: Recombinant protein kinase domains with a concentration of 2 μM
Method in brief: (§1)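 Each kinase domain, at 2 μM, is mixed with 20 μM test compound and SYPRO Orange in Hepes (20 mM, pH 7.5) with 500 mM NaCl. Temperature is then raised at 3°C/min and fluorescence-monitored unfolding yields the melting temperature change, ΔTm in degrees Celsius.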

[2] = target: T2, ~100 representative kinases (Homo sapiens, UniProt P17948); conditions: protein FLT1; average of three replicates
T2 construct: Recombinant protein kinase domains with a concentration of 2 μM
T2 sequence (P17948 27-1338): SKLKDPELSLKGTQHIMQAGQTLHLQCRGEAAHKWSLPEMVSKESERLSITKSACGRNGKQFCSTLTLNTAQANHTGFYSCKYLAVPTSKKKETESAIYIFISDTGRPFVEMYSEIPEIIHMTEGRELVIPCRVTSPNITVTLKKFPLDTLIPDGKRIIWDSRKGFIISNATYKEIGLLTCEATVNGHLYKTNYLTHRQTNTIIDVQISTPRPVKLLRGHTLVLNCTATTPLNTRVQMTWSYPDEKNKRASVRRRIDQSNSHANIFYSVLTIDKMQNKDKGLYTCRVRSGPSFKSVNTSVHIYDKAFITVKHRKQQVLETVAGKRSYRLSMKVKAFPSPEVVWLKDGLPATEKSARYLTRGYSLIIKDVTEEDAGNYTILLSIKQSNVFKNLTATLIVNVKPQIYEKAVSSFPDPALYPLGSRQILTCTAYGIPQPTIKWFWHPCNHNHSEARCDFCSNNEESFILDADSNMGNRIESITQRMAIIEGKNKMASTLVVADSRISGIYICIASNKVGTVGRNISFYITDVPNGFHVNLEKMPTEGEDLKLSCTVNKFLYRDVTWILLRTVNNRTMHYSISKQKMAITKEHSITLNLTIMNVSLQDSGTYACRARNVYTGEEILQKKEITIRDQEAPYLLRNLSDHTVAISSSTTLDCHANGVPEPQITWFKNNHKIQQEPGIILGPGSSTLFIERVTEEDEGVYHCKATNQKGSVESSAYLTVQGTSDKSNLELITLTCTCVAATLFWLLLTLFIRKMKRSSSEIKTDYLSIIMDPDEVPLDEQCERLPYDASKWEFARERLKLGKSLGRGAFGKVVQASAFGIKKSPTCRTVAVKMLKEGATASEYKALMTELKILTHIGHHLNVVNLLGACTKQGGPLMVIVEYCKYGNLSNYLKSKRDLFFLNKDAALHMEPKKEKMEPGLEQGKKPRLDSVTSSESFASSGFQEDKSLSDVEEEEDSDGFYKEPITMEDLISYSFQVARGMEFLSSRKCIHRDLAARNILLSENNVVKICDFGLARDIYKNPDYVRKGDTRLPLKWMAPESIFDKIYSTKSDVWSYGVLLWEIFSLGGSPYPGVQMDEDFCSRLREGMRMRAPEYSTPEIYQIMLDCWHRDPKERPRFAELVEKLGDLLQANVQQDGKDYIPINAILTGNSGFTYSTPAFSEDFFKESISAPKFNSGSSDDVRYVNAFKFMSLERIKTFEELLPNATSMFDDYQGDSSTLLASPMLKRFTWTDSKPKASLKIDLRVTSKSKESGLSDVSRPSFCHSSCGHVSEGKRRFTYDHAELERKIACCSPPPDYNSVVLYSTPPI
Method in brief: as §1

[3] = target: T3, ~100 representative kinases (Homo sapiens, UniProt P21675); conditions: Protein TAF1; DSF; average of three replicates
T3 construct: Recombinant protein kinase domains with a concentration of 2 μM
T3 sequence (P21675 whole entry, the tested form may be a part): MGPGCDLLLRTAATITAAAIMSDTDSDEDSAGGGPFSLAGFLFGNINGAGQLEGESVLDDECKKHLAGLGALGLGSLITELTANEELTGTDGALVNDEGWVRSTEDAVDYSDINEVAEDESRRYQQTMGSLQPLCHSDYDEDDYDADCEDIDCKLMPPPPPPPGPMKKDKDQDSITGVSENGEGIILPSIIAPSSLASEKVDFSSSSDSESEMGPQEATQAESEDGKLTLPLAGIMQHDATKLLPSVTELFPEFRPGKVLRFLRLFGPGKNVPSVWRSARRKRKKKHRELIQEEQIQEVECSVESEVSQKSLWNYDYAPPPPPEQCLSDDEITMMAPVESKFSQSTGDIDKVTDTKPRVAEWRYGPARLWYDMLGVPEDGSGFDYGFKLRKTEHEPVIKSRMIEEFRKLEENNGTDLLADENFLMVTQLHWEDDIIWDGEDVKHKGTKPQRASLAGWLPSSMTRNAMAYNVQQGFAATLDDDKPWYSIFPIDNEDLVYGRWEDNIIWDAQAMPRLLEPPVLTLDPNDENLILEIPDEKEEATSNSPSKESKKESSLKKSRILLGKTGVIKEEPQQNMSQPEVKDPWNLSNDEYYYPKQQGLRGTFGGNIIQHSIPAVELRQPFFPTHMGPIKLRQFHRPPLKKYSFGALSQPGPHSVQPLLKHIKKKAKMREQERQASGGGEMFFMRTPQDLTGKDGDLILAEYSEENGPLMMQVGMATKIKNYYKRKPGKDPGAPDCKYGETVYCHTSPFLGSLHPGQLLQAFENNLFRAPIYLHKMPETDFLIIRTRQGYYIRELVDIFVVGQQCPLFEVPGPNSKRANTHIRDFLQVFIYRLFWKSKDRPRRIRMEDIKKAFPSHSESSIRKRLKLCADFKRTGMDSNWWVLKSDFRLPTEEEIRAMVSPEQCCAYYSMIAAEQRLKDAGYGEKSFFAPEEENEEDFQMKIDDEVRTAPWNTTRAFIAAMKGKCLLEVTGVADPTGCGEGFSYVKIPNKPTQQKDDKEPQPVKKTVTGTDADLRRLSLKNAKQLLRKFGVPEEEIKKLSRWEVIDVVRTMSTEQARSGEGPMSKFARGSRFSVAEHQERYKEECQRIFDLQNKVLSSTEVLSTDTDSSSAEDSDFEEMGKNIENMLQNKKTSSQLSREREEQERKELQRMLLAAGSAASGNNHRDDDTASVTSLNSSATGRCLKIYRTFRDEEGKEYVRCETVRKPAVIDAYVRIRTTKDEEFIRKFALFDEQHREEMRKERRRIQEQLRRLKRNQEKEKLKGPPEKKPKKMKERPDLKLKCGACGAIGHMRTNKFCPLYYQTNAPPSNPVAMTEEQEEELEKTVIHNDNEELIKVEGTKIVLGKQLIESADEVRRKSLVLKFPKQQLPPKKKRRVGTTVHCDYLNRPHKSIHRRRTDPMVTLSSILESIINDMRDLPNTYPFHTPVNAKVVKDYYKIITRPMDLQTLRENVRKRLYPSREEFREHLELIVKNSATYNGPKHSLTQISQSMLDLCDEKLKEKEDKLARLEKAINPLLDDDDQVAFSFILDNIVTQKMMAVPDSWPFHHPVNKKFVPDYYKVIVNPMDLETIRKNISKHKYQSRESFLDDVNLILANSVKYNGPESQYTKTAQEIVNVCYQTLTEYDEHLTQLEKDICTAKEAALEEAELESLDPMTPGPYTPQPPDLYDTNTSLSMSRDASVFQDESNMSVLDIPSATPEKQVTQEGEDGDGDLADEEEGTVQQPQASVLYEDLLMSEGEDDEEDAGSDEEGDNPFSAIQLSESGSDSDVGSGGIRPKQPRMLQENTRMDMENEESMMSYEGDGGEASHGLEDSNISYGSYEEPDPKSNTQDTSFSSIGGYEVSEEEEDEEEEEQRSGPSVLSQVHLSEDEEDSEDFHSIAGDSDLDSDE
Method in brief: as §1

[4] = target: T4, ~100 representative kinases (Homo sapiens, UniProt P33981); conditions: Protein TTK; DSF; average of three replicates
T4 construct: Recombinant protein kinase domains with a concentration of 2 μM
T4 sequence (P33981 1-857): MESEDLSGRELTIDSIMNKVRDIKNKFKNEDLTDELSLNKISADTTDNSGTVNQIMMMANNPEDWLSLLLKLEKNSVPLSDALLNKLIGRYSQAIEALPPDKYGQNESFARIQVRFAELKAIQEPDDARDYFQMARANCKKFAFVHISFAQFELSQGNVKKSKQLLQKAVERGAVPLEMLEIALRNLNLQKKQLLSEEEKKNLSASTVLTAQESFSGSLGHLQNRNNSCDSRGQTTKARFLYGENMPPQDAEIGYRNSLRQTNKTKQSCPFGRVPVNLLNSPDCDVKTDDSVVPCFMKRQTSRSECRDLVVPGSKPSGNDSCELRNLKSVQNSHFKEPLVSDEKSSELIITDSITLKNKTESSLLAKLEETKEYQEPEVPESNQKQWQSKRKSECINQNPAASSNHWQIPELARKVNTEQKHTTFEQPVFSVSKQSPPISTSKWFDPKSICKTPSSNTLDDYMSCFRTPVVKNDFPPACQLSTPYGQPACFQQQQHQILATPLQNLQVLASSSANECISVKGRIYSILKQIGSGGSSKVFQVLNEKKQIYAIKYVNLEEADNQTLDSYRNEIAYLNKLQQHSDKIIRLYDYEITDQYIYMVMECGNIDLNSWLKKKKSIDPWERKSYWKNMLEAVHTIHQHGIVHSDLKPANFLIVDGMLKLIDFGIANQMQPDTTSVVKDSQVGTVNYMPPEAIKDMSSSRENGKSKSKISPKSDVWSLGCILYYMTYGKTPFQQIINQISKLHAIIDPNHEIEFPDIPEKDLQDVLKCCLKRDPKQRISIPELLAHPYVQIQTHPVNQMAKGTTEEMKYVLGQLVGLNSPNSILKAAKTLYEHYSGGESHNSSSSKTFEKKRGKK
Method in brief: as §1

[5] = target: T5, ~100 representative kinases (Homo sapiens, UniProt Q12866); conditions: protein MERTK; average of three replicates
T5 construct: Recombinant protein kinase domains with a concentration of 2 μM
T5 sequence (Q12866 21-999): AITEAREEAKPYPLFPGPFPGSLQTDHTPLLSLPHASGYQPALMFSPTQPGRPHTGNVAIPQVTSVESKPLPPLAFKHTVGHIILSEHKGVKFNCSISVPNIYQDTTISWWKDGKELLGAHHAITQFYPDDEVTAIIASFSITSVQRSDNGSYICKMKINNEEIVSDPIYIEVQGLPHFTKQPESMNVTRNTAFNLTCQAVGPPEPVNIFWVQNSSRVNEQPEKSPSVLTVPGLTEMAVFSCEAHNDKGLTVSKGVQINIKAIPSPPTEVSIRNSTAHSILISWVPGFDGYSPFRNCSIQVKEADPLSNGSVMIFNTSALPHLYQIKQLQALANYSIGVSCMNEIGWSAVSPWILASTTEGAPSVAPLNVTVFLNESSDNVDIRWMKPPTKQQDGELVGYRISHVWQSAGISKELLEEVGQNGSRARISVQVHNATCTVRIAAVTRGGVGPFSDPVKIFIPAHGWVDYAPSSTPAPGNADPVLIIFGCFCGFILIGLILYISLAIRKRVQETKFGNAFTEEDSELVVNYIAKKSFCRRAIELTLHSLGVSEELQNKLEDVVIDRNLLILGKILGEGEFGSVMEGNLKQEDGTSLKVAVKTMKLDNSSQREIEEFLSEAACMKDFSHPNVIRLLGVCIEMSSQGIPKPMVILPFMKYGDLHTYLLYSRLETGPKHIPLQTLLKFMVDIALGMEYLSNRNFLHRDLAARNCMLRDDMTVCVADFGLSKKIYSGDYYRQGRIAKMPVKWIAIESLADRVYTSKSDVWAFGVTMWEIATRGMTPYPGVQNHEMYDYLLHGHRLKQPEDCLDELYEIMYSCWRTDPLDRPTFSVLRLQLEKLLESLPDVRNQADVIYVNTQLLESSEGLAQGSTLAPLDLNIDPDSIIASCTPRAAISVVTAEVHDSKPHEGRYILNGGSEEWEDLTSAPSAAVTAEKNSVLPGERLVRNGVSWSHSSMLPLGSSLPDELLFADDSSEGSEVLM
Method in brief: as §1

[6] = target: T6, ~100 representative kinases (Homo sapiens, UniProt Q8TDX7); conditions: protein NEK7; average of three replicates
T6 construct: Recombinant protein kinase domains with a concentration of 2 μM
T6 sequence (Q8TDX7 whole entry, the tested form may be a part): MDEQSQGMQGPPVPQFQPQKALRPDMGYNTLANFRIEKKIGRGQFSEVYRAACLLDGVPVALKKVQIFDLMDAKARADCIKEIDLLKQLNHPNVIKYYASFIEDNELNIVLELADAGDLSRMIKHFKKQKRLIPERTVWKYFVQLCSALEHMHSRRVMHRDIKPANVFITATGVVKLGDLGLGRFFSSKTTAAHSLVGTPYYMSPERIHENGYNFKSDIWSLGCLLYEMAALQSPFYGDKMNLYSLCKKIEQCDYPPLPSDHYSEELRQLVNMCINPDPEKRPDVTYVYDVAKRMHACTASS
Method in brief: as §1

[7] = target: T7, ~100 representative kinases (Homo sapiens, UniProt Q9H2G2)
T7 construct: Recombinant protein kinase domains with a concentration of 2 μM
T7 sequence (Q9H2G2 whole entry, the tested form may be a part): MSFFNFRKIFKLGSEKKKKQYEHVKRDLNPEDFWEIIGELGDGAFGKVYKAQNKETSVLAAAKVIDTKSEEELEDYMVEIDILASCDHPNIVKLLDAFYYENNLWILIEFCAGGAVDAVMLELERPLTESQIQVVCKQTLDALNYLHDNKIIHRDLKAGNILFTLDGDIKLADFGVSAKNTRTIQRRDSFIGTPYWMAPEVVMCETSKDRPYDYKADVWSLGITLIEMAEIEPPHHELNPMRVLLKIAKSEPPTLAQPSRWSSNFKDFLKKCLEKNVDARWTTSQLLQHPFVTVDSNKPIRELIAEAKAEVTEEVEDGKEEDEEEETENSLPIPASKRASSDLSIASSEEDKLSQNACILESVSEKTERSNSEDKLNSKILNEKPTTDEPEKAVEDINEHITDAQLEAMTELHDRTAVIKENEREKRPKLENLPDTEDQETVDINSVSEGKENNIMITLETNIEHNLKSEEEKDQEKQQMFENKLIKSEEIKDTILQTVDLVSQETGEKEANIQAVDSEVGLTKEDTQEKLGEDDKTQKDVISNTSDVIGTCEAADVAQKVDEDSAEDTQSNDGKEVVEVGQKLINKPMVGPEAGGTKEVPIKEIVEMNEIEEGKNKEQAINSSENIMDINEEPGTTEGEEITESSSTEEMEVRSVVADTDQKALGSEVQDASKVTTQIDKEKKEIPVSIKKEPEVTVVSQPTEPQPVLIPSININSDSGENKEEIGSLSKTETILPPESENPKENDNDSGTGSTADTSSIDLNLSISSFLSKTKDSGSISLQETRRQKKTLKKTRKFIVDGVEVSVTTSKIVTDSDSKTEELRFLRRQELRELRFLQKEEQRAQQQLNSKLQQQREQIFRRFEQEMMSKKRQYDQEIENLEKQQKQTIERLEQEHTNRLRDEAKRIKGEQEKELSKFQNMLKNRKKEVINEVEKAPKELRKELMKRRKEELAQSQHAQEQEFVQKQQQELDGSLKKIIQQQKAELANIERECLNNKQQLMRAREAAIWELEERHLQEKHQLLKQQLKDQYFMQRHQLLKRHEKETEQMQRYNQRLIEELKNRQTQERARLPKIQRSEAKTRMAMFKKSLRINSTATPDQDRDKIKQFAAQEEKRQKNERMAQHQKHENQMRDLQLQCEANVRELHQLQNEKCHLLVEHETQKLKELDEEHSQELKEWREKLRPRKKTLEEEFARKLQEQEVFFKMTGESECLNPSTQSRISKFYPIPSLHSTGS
Method in brief: as §1

[8] = target: T8, ~100 representative kinases (Homo sapiens, UniProt Q9UEE5); conditions: Protein STK17A; DSF; average of three replicates
T8 construct: Recombinant protein kinase domains with a concentration of 2 μM
T8 sequence (Q9UEE5 1-414): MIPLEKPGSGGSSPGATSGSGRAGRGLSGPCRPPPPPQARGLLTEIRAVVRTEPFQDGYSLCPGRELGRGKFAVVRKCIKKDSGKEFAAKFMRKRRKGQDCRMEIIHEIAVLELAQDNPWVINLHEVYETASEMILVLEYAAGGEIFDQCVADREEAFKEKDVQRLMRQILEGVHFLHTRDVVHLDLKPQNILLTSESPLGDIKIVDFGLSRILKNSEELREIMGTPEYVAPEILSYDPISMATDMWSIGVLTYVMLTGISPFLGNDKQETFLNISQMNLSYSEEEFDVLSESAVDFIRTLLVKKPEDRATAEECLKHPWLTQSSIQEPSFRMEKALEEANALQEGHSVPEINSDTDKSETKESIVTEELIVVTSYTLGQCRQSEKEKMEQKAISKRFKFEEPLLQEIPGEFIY
Method in brief: as §1

[9] = Protein SLK, DSF, average of three replicates

Row | dTm [7, 9] [K] | SMILES | dTm [1] [K] | dTm [2] [K] | dTm [3] [K] | dTm [4] [K] | dTm [5] [K] | dTm [6] [K] | dTm [8] [K] | dTm [7] [K]
1 | 9.23 | CC(=O)N1CCN(c2nc(Cl)nc3[nH]cc(-c4cccc(NC(=O)Nc5cc(C(C)(C)C)nn5-c5ccc(C)cc5)c4)c23)CC1 [Compound 31] | 8.01 | 7.62 | -2.02 | 1.71 | 0.10 | -0.91 | -0.15 | –
2 | -1.49 | COc1cc(C(=O)N2CCOCC2)c(F)cc1Nc1nc(N(C)C)c2c(Cl)c[nH]c2n1 [Compound 36] | 2.79 | 0.33 | 1.23 | 10.39 | -0.62 | -0.65 | 0.25 | –
3 | -0.88 | COc1cc(S(C)(=O)=O)ccc1Nc1nc(N(C)C)c2c(Cl)c[nH]c2n1 [Compound 37] | 1.80 | -0.32 | 1.43 | 7.87 | -0.61 | -0.25 | -0.19 | –
4 | 0.62 | CCNc1nc(Nc2cc(F)c(C(=O)N3CCOCC3)cc2OC)ncc1C(F)(F)F [GNE-7915] | 3.91 | 1.69 | -0.58 | 6.53 | 2.33 | 0.34 | 0.32 | –
5 | – | Cc1ccc(C(=O)Nc2ccc(CN3CCN(C)CC3)c(C(F)(F)F)c2)cc1C#Cc1cnc2[nH]ncc2c1 [GZD-824, reference compound] | 8.48 | 22.54 | -0.68 | 4.08 | 5.77 | 1.00 | 0.16 | 15.82

Row | SMILES | dTm [7, 9] [K] | dTm [1] [K] | dTm [2] [K] | dTm [3] [K] | dTm [4] [K] | dTm [5] [K] | dTm [6] [K] | dTm [8] [K] | dTm [7] [K]
6 | CCSc1nc(NC)c2c(-c3cccc(NC(=O)Nc4cc(C(C)(C)C)nn4-c4ccc(C)cc4)c3)c[nH]c2n1 [Compound 32] | 5.13 | 0.23 | 1.15 | -5.70 | 6.59 | 0.0365 | -0.18 | -0.0646 | –
7 | C[C@@H]1CN(c2cc(-c3n[nH]c4ccc(OC5(C)CC5)cc34)ncn2)C[C@H](C)O1 [MLi2] | -1.23 | -1.02 | 0.51 | -0.34 | 5.63 | 0.0155 | 0.03 | -0.26 | –
8 | Cn1cc(-c2c[nH]c3ncnc(N4CCOCC4)c23)cc1C#N [PFE-360] | 3.08 | 0.69 | 2.46 | -0.43 | 0.43 | 0.31 | -0.13 | 0.43 | –
